Data from PubChem BioAssay AID1259418 (Broad Institute, 2018).
“And” between values parts separate entries of the source, which are not always exact repeats. Equal values may be shown once. Records with an inconclusive call do not appear. The source made the active and inactive calls.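 The calls were made as follows: active = fitted half-maximal concentration of signal decrease at or below twice the sample's top tested concentration; inconclusive = flat curve between -70 and -30 percent, or poor fit; inactive = flat within 30 percent, signal rise, or potency above limit.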

Target: T. gondii ME49Luc in IFN-y HeLa, luciferase, 72 h
Assay: T. gondii growth inhibition with IFN-gamma, dose response, cell-based, ME49Luc, HeLa, luciferase, 72 h (AID 1259418)

Row | Compound | AC50
1 | O=S(=O)(c1ccc2c(c1)CCCC2)N1CCC2(CC1)NCCN=C2NC1CCCCCC1 | 9.95 µM
2 | COc1cccc(CNC2=NCCNC23CCN(S(=O)(=O)c2ccc(Cl)s2)CC3)c1 | 11.6 µM
3 | C[C@H](NC(=O)C[C@H]1CC[C@@H]2[C@@H](COc3ccc(NS(=O)(=O)c4ccc(Cl)cc4)cc3C(=O)N2C)O1)c1ccccc1 | 11.1 µM and 18.1 µM
4 | Cc1ccc2c(c1)c1ncn(Cc3nc(C(C)C)no3)c(=O)c1n2CC(=O)N1CCCC1 | 14.5 µM
5 | CCC(C(=O)N1CCC2(CC1)Nc1ccc(Cl)cc1-n1cccc12)c1ccccc1 (centres undefined) | > 39 µM (inactive)
6 | Cc1ccc(-c2coc(-c3ccc(NC(=O)Nc4cc(F)ccc4F)cc3)n2)cc1 | 27.7 µM
7 | COc1cccc(N(Cc2nc(-c3ccc(C)cc3)oc2C)S(=O)(=O)c2ccc(C)cc2)c1 | 7.83 µM
8 | COc1ccccc1C(=O)Nc1ccc(-c2nc(-c3ccccc3)co2)cc1 | 33.3 µM
9 | CC(C)C#Cc1ccc([C@@H]2[C@@H](CO)N(C(=O)c3cccc(F)c3)[C@H]2C#N)cc1 | 14.2 µM and 27.9 µM
10 | CCc1nc(OCC(=O)N(C)c2ccccc2)c2ccccc2n1 | 24.4 µM
11 | O=C(NC1CCCC1)N1CCCCN2[C@@H](CO)[C@H](c3ccc(-c4cccnc4)cc3)[C@@H]2C1 | 23.3 µM
12 | COc1cccc(S(=O)(=O)N2CCCCN3[C@H](C2)[C@@H](c2ccc(C#CCC(C)C)cc2)[C@@H]3CO)c1 | 15.3 µM
13 | COc1ccccc1-c1nc(Cn2nnc(-c3nc(-c4ccc(C)cc4)no3)c2C)c(C)o1 | > 20 µM (inactive)
14 | CCc1ccc(S(=O)(=O)N2CCC[C@@H]2C(=O)NCCc2csc(-c3ccccc3)n2)cc1 | 21.8 µM
15 | COCC(=O)N1[C@@H](C#N)[C@H](c2ccc(C#CCC3CCCC3)cc2)[C@@H]1CO | 38.3 µM
16 | COc1ccc(-c2nc(NCCN3CCOCC3)c3ccccc3n2)cc1 | 14.2 µM
17 | COc1ccc(S(=O)(=O)N2CCCCN3[C@H](CO)[C@@H](c4ccc(C#CCC(C)C)cc4)[C@H]3C2)cc1 | 4.13 µM and 4.65 µM
18 | CN1C(=O)c2cc(NC(=O)c3cccc(F)c3)ccc2OC[C@H]2O[C@@H](CC(=O)NCC3CCCCC3)CC[C@@H]21 | 21.5 µM
19 | Cc1nc(CCNC(=O)C2CCN(C(=O)c3cccc(Cl)c3)CC2)cs1 | 31.5 µM
20 | CCCNC(=O)c1cc(-c2ccn(CC3CC3)n2)n2ccccc12 | 26.9 µM
21 | O=C(CC1CC1)N1CC[C@@H]2[C@@H](CO)Nc3ccc(-c4ccc(F)cc4)cc3[C@@H]21 | 21.1 µM
22 | O=C1c2c(O)ccc(O)c2C(=O)c2c(NCCNCCO)ccc(NCCNCCO)c21 | 0.128 µM
23 | CCC(C)Nc1nc(-c2ccc(OC)cc2)nc2ccccc12 (centres undefined) | > 39 µM (inactive)
24 | O=C(CC1N=C2c3ccccc3N=C(SCc3ccc(Cl)cc3)N2C1=O)NCCc1ccccc1 (centres undefined) | 20.4 µM

Row | Compound | AC50
25 | COc1ccc2c(c1)NC1(CCN(C(=O)CCc3cc(OC)c(OC)c(OC)c3)CC1)c1cccn1-2 | > 39 µM (inactive)
26 | COc1ccccc1-c1nc(CN(c2ccccc2OC)S(=O)(=O)c2ccccc2)c(C)o1 | 5.18 µM
27 | O=C(CCCCCNc1nc(=S)[nH]c2ccccc12)N1CCC(O)(c2cccc(C(F)(F)F)c2)CC1 | > 39 µM (inactive)
28 | CC(C)C#Cc1ccc([C@H]2[C@@H](CO)N3C(=O)CN(C(=O)NC4CCCC4)C[C@H]23)cc1 | > 39 µM (inactive)
29 | COc1ccc(-c2nc(Nc3ccc(CN4CCCCC4)cc3)c3ccccc3n2)cc1 | 12 µM
30 | COc1ccc(-c2nc(CN(c3ccccc3OC)S(=O)(=O)c3ccc(C)cc3)c(C)o2)cc1 | 5.3 µM
31 | O=C(NCCCN1CCCC1)C1CCN(Cc2cc3ccccc3n2Cc2ccccc2)CC1 | 23 µM
32 | O=C1CCc2cc(S(=O)(=O)NC(c3ccccc3)c3ccccc3)cc3c2N1CCC3 | 12.8 µM
33 | CCS(=O)(=O)N1CCc2nc(-c3cccc(F)c3)nc(NC3CC3)c2C1 | 31.4 µM
34 | COc1cccc(C#Cc2ccc([C@@H]3[C@@H](C#N)N[C@@H]3CO)cc2)c1 | 38.4 µM
35 | COc1ccccc1-c1ccc([C@H]2[C@H](CO)N[C@@H]2C#N)cc1 | 24 µM
36 | Cc1cccc(NC(=O)COc2nc(C)nc3ccccc23)c1 | 32 µM
37 | O=C1CNC[C@@H]2[C@@H](c3ccc(C#Cc4cccnc4)cc3)[C@@H](CO)N12 | 14.1 µM and 18.2 µM
38 | Cc1nnsc1CN(C)Cc1[nH]c2ccc(F)cc2c1C | > 39 µM (inactive)
39 | OC[C@@H]1Nc2ccc(C#Cc3ccc(F)cc3)cc2[C@@H]2[C@H]1CCN2Cc1ccc2c(c1)OCO2 | 15.4 µM and 23.4 µM
40 | O=S(=O)(c1cccs1)N1CCC2(CC1)NCCN=C2NCc1cccc(F)c1 | 26.1 µM
41 | COc1cccc(-c2nc(C)c(-c3ccc(SCc4ccc(Cl)cc4)nn3)s2)c1 | 8.76 µM
42 | CCN(CC)c1nc(-c2ccc(OC)cc2)nc2ccccc12 | 15.7 µM
43 | Cc1ccc(S(=O)(=O)N2CCC3(CC2)NCCN=C3NCc2ccc(F)c(Cl)c2)cc1C | 16.5 µM
44 | O=C(O)CCc1nc2sc3c(c2c(=O)[nH]1)CCCC3 | > 20 µM (inactive)
45 | Cc1cc(C)c(S(=O)(=O)N2CCC3(CC2)NCCN=C3NCc2ccc3c(c2)OCO3)cc1C | 9.23 µM
46 | O=S(=O)(c1cccs1)N1CCCCN2[C@H](CO)[C@H](c3ccc(/C=C/c4ccccc4)cc3)[C@@H]2C1 | 18.8 µM
47 | O=C(C(=O)N1CCN(c2ncnc3c2nnn3Cc2ccccc2)CC1)c1c[nH]c2ccccc12 | 13.5 µM
48 | O=C(NCCc1csc(-c2ccccc2)n1)C1CCN(C(=O)c2ccccc2Br)CC1 | 24.6 µM

Row | Compound | AC50
49 | COc1ccc(-c2nc(NCCCN3CCOCC3)c3ccccc3n2)cc1 | 16.6 µM
50 | O=C(Nc1cccnc1)c1cc(-c2cnc(-c3ccccc3)nc2)cn1CC1CC1 | 34.2 µM and 26.9 µM
51 | COc1ccc(CN2CCC(c3cc4c(ncn4C)c(-c4ccc(OC)cc4)n3)CC2)cc1 | 24.7 µM
52 | O=C(Nc1ccccc1)N1CC2CN(Cc3ccc(C(F)(F)F)cc3)C2C1 (centres undefined) | 36.6 µM
53 | O=C1CCc2cc(S(=O)(=O)N3CCc4ccccc4C3)cc3c2N1CCC3 | 31.1 µM
54 | O=S(=O)(c1cccs1)N1CCC2(CC1)NCCN=C2NCc1ccc(C(F)(F)F)cc1 | 23 µM
55 | O=C(Nc1cccc(F)c1)N1CCCCN2[C@H](CO)[C@H](c3ccc(C#Cc4cccnc4)cc3)[C@H]2C1 | 19.3 µM
56 | Cc1cccc(S(=O)(=O)N2CCc3nc(-c4cnn(C)c4)nc(NC4CC4)c3C2)c1 | 19 µM
57 | COc1ccc(-c2nc(CN(c3ccc(C)cc3)S(=O)(=O)c3cccs3)c(C)o2)cc1OC | 15 µM
58 | O=C(CC1N=C2c3ccccc3N=C(SCc3ccccc3F)N2C1=O)NC1CCCCC1 (centres undefined) | 19.1 µM
59 | CC(C)(C)OC(=O)Nc1cc(-c2cn[nH]c2C2CCCN(C(=O)OC(C)(C)C)C2)ccn1 (centres undefined) | 10.1 µM
60 | COc1cccc(NC(=O)N2CC(=O)N3[C@H](C2)[C@H](c2ccc(C#CCC4CCCC4)cc2)[C@@H]3CO)c1 | 14.2 µM and 9.85 µM
61 | CCC(=O)N1CCC2(CC1)Nc1ccc(Cl)cc1-n1cccc12 | 31 µM
62 | CCCCNc1ncnc2c1cnn2-c1ccc(C)cc1C | 28.1 µM
63 | O=S(=O)(c1ccccc1)N(CC(F)(F)F)c1ccc(C(O)(C(F)(F)F)C(F)(F)F)cc1 | 19 µM
64 | O=C(Cc1ccc(Cl)cc1)N1CC2(CCN(Cc3ccc(C(F)(F)F)cc3)CC2)C1 | 22.2 µM
65 | COc1ccc(N(Cc2nc(-c3ccccc3)oc2C)S(=O)(=O)c2ccccc2C)cc1 | 11.6 µM
66 | Cc1cc(C)c(S(=O)(=O)N2CCC3(CC2)NCCN=C3NCc2cc(F)cc(F)c2)cc1C | 7.83 µM
67 | Cc1cccc(C(=O)Nc2c(C(=O)NCc3cccnc3)[nH]c3ccccc23)c1 | > 39 µM (inactive)
68 | Cc1ccc2[nH]c(C(=O)NCc3cccnc3)c(NC(=O)c3ccc(F)cc3)c2c1 | 27.6 µM
69 | COc1cccc(NC(=O)N2CC(=O)N3[C@H](CO)[C@@H](c4ccc(C#CCC5CCCC5)cc4)[C@H]3C2)c1 | > 39 µM (inactive)
70 | Cc1ccccc1S(=O)(=O)N1CC[C@H]2[C@H](CO)Nc3ccc(-c4ccc(F)cc4)cc3[C@H]21 | 28.5 µM
71 | CCCN(C/C=C/I)C1CCc2cccc(O)c2C1 (centres undefined) | 30.9 µM
72 | Cc1ccc(NC(=O)c2cc(-c3cnc(-c4ccccc4)nc3)cn2CC2CC2)cn1 | 10.9 µM

Row | Compound | AC50
73 | CC(C)Cc1ccc(S(=O)(=O)N2CCC3(CC2)NCCN=C3NCc2ccccc2)cc1 | 14.4 µM
74 | CC(C)(O)CC(=O)NCCn1ccc2ncnc(Nc3ccc(Oc4cccc(C(F)(F)F)c4)c(Cl)c3)c21 | 24.1 µM
75 | COc1ccccc1-c1noc(-c2nnn(Cc3nc(-c4ccccc4OC)oc3C)c2C)n1 | > 39 µM (inactive)
76 | Cc1ccc(S(=O)(=O)N2CCC3(CC2)NCCN=C3NCc2ccc3c(c2)OCO3)cc1C | 22.4 µM
77 | COc1ccc(CNc2nc(SCc3ccc(Cl)cc3)nc3ccccc23)cc1 | 35.5 µM
78 | O=C(c1ccco1)N1CCC2(CC1)Nc1ccc(Cl)cc1-n1cccc12 | 32.1 µM
79 | COc1ccc(-c2nc(NCCCN3CCN(Cc4ccccc4)CC3)c3ccccc3n2)cc1 | > 39 µM (inactive)
80 | COc1ccccc1NC(=O)N1C[C@@H]2N[C@H](C1)C2c1ccc(/C=C/c2ccccc2)cc1 (some centres undefined) | 6.84 µM and 4.45 µM and 4.22 µM
81 | COc1ccc(-c2nc(CN(c3cccc(OC)c3)S(=O)(=O)c3ccccc3)c(C)o2)cc1 | 9.75 µM
82 | Cn1c2ccccc2c2c1cc(C(=O)N1CCN(c3ccncc3)CC1)n2S(C)(=O)=O | 26.6 µM
83 | O=C(NCc1ccc(F)cc1F)c1cc(-c2cnc(N3CCCC3)nc2)cn1CC1CC1 | 13.2 µM
84 | CCc1nc(OCC(=O)Nc2ccccc2C(=O)OC)c2ccccc2n1 | > 39 µM (inactive)
85 | O=C(c1ccc(-n2c(=S)[nH]c3ccccc3c2=O)cc1)N1CCC(O)(c2cccc(C(F)(F)F)c2)CC1 | 38 µM
86 | CS(=O)(=O)N1CC(=O)N2[C@H](C1)[C@@H](c1ccc(C#Cc3ccc(F)cc3)cc1)[C@@H]2CO | 22.8 µM
87 | Cc1ccc(C(=O)N2CCC3(CC2)Nc2cc(F)ccc2-n2cccc23)cc1C | > 39 µM (inactive)
88 | c1ccc(-c2noc(-c3ccc(N4CCC(N5CCCCC5)CC4)nc3)n2)cc1 | 18.6 µM
89 | CC(C)C#Cc1ccc([C@H]2[C@@H](CO)N3C(=O)CN(S(=O)(=O)c4ccccc4)C[C@H]23)cc1 | 13.6 µM
90 | Cc1cc(C)c(S(=O)(=O)N2CCC[C@@H]2C(=O)NCCc2csc(C)n2)c(C)c1 | 31.9 µM
91 | O=C1c2cccc(O)c2C(=O)c2c(O)cc(CO)cc21 | 16.6 µM
92 | Cc1cccc(CNC2=NCCNC23CCN(S(=O)(=O)c2cc(C)c(C)cc2C)CC3)c1 | 5.49 µM
93 | O=C(c1cnccn1)N1CC(=O)N2[C@H](CO)[C@H](c3ccc(/C=C/c4ccccc4)cc3)[C@@H]2C1 | 24.8 µM
94 | COc1ccc(CNC2=NCCNC23CCN(S(=O)(=O)c2ccc(C)c(C)c2)CC3)cc1 | > 39 µM (inactive)
